Measured values taken from publication PMC12137140, “The fast-evolving FIKK kinase family of Plasmodium falciparum can be inhibited by a single compound” (Nature Microbiology, 2025).

Each compound was assayed against T1, FIKK1 (Plasmodium falciparum, UniProt B9ZSH8) (assay: ADP-Glo kinase assay, % inhibition heat map (n = […])).
T1 construct: gene PF3D7_0102600; recombinant kinase domain
T1 sequence (B9ZSH8 entry or part of it): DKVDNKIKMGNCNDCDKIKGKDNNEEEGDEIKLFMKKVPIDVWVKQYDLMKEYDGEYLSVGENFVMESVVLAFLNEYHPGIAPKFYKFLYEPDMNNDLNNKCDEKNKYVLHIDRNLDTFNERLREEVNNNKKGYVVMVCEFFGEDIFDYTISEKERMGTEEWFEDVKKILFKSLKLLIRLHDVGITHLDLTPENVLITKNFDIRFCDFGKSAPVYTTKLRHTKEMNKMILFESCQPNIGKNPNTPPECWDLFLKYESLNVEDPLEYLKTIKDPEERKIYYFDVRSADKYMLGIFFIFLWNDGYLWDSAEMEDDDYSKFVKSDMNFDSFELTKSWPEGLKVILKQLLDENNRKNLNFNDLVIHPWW
Type: biochemical
For `Cc1cc(O)c2c(c1)C(=O)c1cc(O)cc(O)c1C2=O` [Emodin], the “ADP-Glo kinase assay, % inhibition heat map (n = 3)” value was “showed potency against all PfFIKKs (Fig. 6d)”.

Each compound was assayed against T2, FIKK13 (Plasmodium falciparum, UniProt A0A143ZWL4) in the same assay as above.
T2 construct: gene PF3D7_1371700; recombinant kinase domain
T2 sequence (A0A143ZWL4 entry or part of it): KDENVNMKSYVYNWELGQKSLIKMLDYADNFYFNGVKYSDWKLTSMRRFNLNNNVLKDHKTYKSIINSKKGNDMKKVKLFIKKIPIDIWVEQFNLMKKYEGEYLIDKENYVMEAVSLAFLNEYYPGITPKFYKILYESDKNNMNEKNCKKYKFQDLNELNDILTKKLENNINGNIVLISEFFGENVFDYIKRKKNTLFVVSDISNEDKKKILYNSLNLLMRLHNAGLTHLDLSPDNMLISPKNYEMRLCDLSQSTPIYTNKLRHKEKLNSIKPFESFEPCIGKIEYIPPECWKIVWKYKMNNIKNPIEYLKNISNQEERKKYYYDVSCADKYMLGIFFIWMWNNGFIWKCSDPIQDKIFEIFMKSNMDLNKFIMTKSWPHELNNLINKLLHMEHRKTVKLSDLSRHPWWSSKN
Type: biochemical
With `Cc1cc(O)c2c(c1)C(=O)c1cc(O)cc(O)c1C2=O` [Emodin] the “ADP-Glo kinase assay, % inhibition heat map (n = 3)” value was “showed potency against all PfFIKKs (Fig. 6d)”.

What follows are compounds tested against T3, FIKK8 (Plasmodium falciparum, UniProt C0H4R8) (assay: biochemical).
T3 construct: gene PF3D7_0805700; recombinant FIKK8 kinase domain
T3 sequence (C0H4R8 entry or part of it): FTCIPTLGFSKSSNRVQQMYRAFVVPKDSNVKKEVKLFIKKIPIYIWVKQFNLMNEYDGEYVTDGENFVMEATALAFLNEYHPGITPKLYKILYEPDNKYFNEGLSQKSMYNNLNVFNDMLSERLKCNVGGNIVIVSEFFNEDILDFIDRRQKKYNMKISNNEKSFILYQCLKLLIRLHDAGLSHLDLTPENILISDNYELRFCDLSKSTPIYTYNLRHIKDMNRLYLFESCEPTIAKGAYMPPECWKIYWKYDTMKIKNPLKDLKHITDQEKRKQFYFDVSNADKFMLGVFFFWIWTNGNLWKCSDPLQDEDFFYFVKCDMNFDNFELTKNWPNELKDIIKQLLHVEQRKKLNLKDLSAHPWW
Parameters: ADP-Glo luminescence kinase assay, recombinant FIKK8 kinase domain, Po peptide substrate plus ATP, four-parameter IC50 fit
Procedure: Columns 6 and 18 of the microplates served as controls. Column 6 was a positive control (recombinant FIKK8 kinase domain + Po peptide ([…])[22] + ATP without compounds). Column 18 was a negative control (recombinant FIKK8 kinase domain + Po peptide − ATP). First, 3 µl kinase at 40 nM in kinase reaction buffer (20 mM MOPS, 10 mM magnesium chloride and 10 mM manganese chloride, pH 7.4 (Alfa Aesar)) was dispensed in each well using a Multidrop Combi Reagent dispenser (Thermo Fisher Scientific). Recombinant FIKK8 kinase domain was left to incubate in the presence of compounds for 15 min at room temperature. Then, 3 µl Po peptide + ATP at 20 µM each, diluted in kinase reaction buffer, was dispensed in each well except in column 18 in which 3 µl of peptide without ATP was dispensed. The kinase reaction was left to occur for 1 h and was stopped with 6 µl ADP-Glo reagent. Kinase activity was assessed after addition of 12 µl kinase detection reagent by measuring luminescence on a multimode microplate reader FLUOstar Omega (BMG Labtech).
For `O=C(Nc1n[nH]c2nnc(-c3cccnc3)cc12)C1CC1` [SB-675259-M], the IC50 was 0.168 ± 0.021 µM. `CN1CCC(n2cnc(-c3ccc(F)cc3)c2-c2ccnc(NC3CCNCC3)n2)CC1` [SB-229482] showed an IC50 of 0.024 ± 0.0017 µM. `CCN1CCC(CC(=O)Nc2n[nH]c3nc(-c4cccs4)c(Br)cc23)CC1` [SB-739245-AC] gave an IC50 of 0.238 ± 0.028 µM. `O=c1[nH]ccc2nc(N[C@@H]3CCNC3)nc(Nc3cc(Cl)cc(Cl)c3)c12` [GSK2188764A] was tested, and the IC50 was 0.06 ± 0.0098 µM. `COc1ccc(Nc2ncc(C#N)c(Nc3ccccc3C(N)=O)n2)cc1N1CCN(C)CC1` [GSK1558669A] showed an IC50 of 0.089 ± 0.037 µM. `Cc1cccc(Nc2nc(N[C@H]3CCNC3)ncc2C(N)=O)c1` [GSK2197149A] was tested, and the IC50 was 0.315 ± 0.052 µM. For `CCNc1nccc(-c2c(-c3ccc(F)cc3)ncn2C2CCN(C)CC2)n1` [SB-226605], the IC50 was 0.098 ± 0.0066 µM. In the case of `O=c1[nH]ccc2nc(N[C@@H]3CCNC3)nc(Nc3ccc4c(c3)S(=O)(=O)CC4)c12` [GSK2181306A], the IC50 is reported as 0.031 ± 0.0016 µM. `CCN(CC)Cc1ccc(Nc2nccc(-c3cnn4ncccc34)n2)cc1` [GW780056X] showed an IC50 of 0.332 ± 0.088 µM. With `CN1CCC(n2cnc(-c3ccc(F)cc3)c2-c2ccnc(NCCO)n2)CC1` [SB-226879] the IC50 was 0.176 ± 0.02 µM. With `O=c1[nH]ccc2nc(N[C@@H]3CCCNC3)nc(Nc3ccc(S(=O)(=O)N4CCOCC4)cc3)c12` [GSK2177277A] the IC50 was 0.048 ± 0.0044 µM.
